Results published in patent US20100189772A1, “Compositions of TLR ligands and antivirals” (COLEY PHARMACEUTICAL GROUP, INC, priority 2006, published 2010).
Read-outs that look alike come from different tables or passages of the source.

Assays:
[1] = system: Human PBMC; test: Effect of Ribavirin on CpG ODN-induced cytokines in human PBMC co-culture; type: cell-based; conditions: for IC50: Homo sapiens, PBMC, calculated IC50 upon addition of Ribavirin to cultures containing 1 μM SEQ ID NO: 13
Protocol: (§1) Cell purification Peripheral blood buffy coat preparations from healthy human donors were obtained from the Blood Bank of the University of Düsseldorf (Germany) and PBMC were purified by centrifugation over Ficoll-Hypaque (Sigma). Cells were cultured in a humidified incubator at 37° C. in RPMI 1640 medium supplemented with 5% (v/v) heat inactivated human AB serum (BioWhittaker) or 10% (v/v) heat inactivated FCS, 2 mM L-glutamine, 100 U/ml penicillin and 100 μg/ml streptomycin (all from Sigma).
(§2) Cytokine detection PBMC were resuspended at a concentration of 5×10^6 cells/ml and added to 96 well round-bottomed plates (250 μl/well). PBMC were incubated with various ODN, ORN or nucleoside concentrations and culture supernatants (SN) were collected after the indicated time points. If not used immediately, SN were stored at −20° C. until required. For inhibitory experiments, cells were stimulated with the indicated TLR ligand concentration and nucleoside or ORN added. In some experiments, the second modified ORN was added 1 h after the start of the cell culture.
(§3) Amounts of cytokines in the SN were assessed using a commercially available ELISA Kit for IL-12p40 (from BD Biosciences, Heidelberg, Germany), IFN-γ and TNF-α (from Diaclone, Besancon, France) or an in-house ELISA for IFN-α developed using commercially available antibodies (PBL, New Brunswick, N.J., USA). For analysis of a broad set of cytokines and chemokines, multiplex analysis with a luminex system from Bio-Rad (Munich, Germany) and Multiplex kits from Biosource (Solingen, Germany) was performed.
The observations were particularly noted at lose doses of Ribavirin.

[2] = system: bone marrow (BM) derived dendritic cells (DCs); test: Cytokine production of bone marrow derived dendritic cells treated with SEQ ID NO. 14 and/or RBV; type: cell-based
Protocol: Similar experiments were performed using bone marrow (BM) derived dendritic cells (DCs). BM-derived DC maintained in GM-CSF were treated with SEQ ID NO. 14, RBV (1 μM, 5 μM, 10 μM, 100 μM, or 120 μM) or with SEQ ID NO. 14 and RBV. At 4, 24 and 72 hours samples were tested for cytokine, IL-10 (FIG. 6), IL-12p40 (FIG. 7A), IL-12p70 (FIG. 7B) and TNF (data not shown). No effects of RBV alone at 120 μM were observed. SEQ ID NO. 14 induced IL-12, IL-10 and TNF. RBV decreased IL-10 and TNF but increased IL-12 (at 72 h only). RBV decreased SEQ ID NO. […].

[3] = system: CD3-mediated IFN-γ production; test: Ex vivo anti-CD3 stimulation of lymph node cells in the presence of RBV, IFN-gamma ELISA; type: cell-based, Mice
Protocol: (§4) We repeated the experiment with a lower dose of RBV in vivo (0.5 mg/kg IP).
(§5) Mice were injected with SEQ ID NO. 14 (100 micrograms SC), RBV (0.5 mg/kg IP) or SEQ ID NO. 14 and RBV. RBV was administered in vivo either at day 0 or day 5 and CpG was administered at day O, Samples were isolated at Day 6 from the inguinal lymph node and maintained in medium on anti-CD3 coated plated in the presence of 1-16 μM RBV. On Day 8 an ELISA assay was performed to detect IFN-gamma.
The ex vivo effect of RBV on CD3-mediated IFN-γ production independently of prior ODN/RBV treatment was examined. Similar to the data described above, low concentrations of RBV in vitro increased IFN-γ levels independently of previous in vivo treatments (FIG. 5A).

[4] = system: T cell IFN-γ production; test: In vivo treatment of mice with CpG ODN and/or RBV, ex vivo anti-CD3 induced IFN-gamma production of inguinal lymph node cells (ELISA); conditions: for T cell IFN-γ production ex-vivo after in vivo treatment with a single agent: SEQ ID NO. 14 100 micrograms SC or RBV 0.5 mg/kg IP alone, lymph node Day 6, ELISA Day 8, FIG. 4
Protocol: as §4, §5

[5] = system: Human PBMC; test: Cytokine induction by ORN in human PBMC (ELISA of supernatants); type: cell-based; conditions: human PBMC (n=3); for IFN-alpha cytokine induction, 8-modified nucleotide at the ORN 5′ end: FIG. 3, compared to the unmodified ORN (SEQ ID NO:8 and 11); for IFN-alpha cytokine induction, effect of the position of 8-Oxo-rG: FIG. 2, versus control SEQ ID NO:8
Protocol: as §1, §2, §3
Human PBMC (n=3) were stimulated with 8-Oxo-rG (a C-8 substituted guanosine) modified ORN (SEQ ID NO:1-4) and an unmodified ORN (SEQ ID NO:8). Supernatants were collected and cytokines IFN-alpha (FIG. 1a), IL-12p40 (FIG. 1b) and TNF-alpha (FIG. 1c) were measured.
Human PBMC (n=3) were stimulated with the indicated ORN with a single 8-Oxo-rG at different positions of the ORN (SEQ ID NO:1-4) and the […] negative control (SEQ ID NO:8). Supernatants were collected and IFN-alpha measured.
Human PBMC (n=3) were stimulated with the indicated ORN with a single 8-Oxo-rG/Dg (SEQ ID NO:1, 5), 8-Bromo-dG (SEQ ID NO:7) or Immunosine (Isatoribine) (SEQ ID NO:6) (with a 5′-5′ linkage) at the 5′ end of the ORN and IFN-alpha measured. […] Similar data were obtained for 8-Bromo-rG (data not shown). In addition, even the linkage of a 8-modified dA or rA (data not shown) results in an, although only slight increase of the cytokine induction.

[6] = system: C26 SC mouse model; test: C26 SC mouse cancer model, survival; type: in vivo; conditions: 100 micrograms ODN intra/peri tumor at days 7, 14, 21; 0.5 mg/kg RBV IP on same days; as of days 30-40; FIG. 8
Protocol: C26 SC mouse model was treated with SEQ ID NO. 14 and RBV (100 micrograms ODN intra/peri tumor at days 7, 14, 21 and 0.5 mg/kg RBV IP on same days).

[7] = human PBMC stimulated with CpG ODN (SEQ ID NO:15 as printed), increasing doses of Ribavirin
[8] = SEQ ID NO. 14 alone, BM-derived DC in GM-CSF

In the case of `NC(=O)c1ncn([C@@H]2O[C@H](CO)[C@@H](O)[C@H]2O)n1` [Ribavirin], the IC50 ([1]; read-out: IC50 IFN-alpha) is reported as 1000 µM, the IC50 ([1]; read-out: IC50 IL-6) is reported as 320 µM and the IC50 ([1]; read-out: IC50 IL-10) is reported as 58 µM. For the same compound, the “effect on the CpG-induced IL10 induction” value [1, 7] was “suppressive effect”, the “suppressive effect with respect to IFN-alpha” value [1, 7] was “not observed” and the “effect of RBV on SEQ ID NO. 14-induced IL-12p40” value ([2]; BM-derived DC, FIG. 7A) was “decreased”. The “effect of RBV on SEQ ID NO. 14-induced IL-12p70” value ([2]; BM-derived DC, FIG. 7B) was “increased IL-12p70 (slightly)”, the “effect of RBV on SEQ ID NO. 14-induced IL-10” value ([2]; BM-derived DC, RBV 1-120 μM with SEQ ID NO. 14, FIG. 6) was “decreased” and the “effect of RBV on IL-12” value ([2]; BM-derived DC, RBV with SEQ ID NO. 14, at 72 h only) was “increased”. For the same compound, the “effect of RBV on TNF” value ([2]; BM-derived DC, RBV with SEQ ID NO. 14, data not shown) was “decreased”, the “cytokines (IL-10, IL-12p40, IL-12p70, TNF), RBV alone” value ([2]; RBV alone at 120 μM, 4, 24 and 72 hours) was “No effects” and the “IFN-γ production, ex vivo anti-CD3 stimulation in the presence of RBV” value ([3]; initial experiment, only at rather low concentrations of RBV (1-5 μM)) was “increase IFN-γ production”. For the same compound, the “CD3-mediated IFN-γ levels, RBV in vitro” value ([3]; low concentrations of RBV in vitro, independently of previous in vivo treatments, FIG. 5A) was “increased”, the “effect of RBV on IFN-γ production when CpG ODN was also injected” value ([4]; RBV 0.5 mg/kg IP with SEQ ID NO. 14 100 micrograms SC, FIG. 4B) was “greatly enhanced” and the “T cell IFN-γ production ex-vivo after in vivo treatment with a single agent” value [4] was “small effect”. For the same compound, the “ex vivo IFN-γ CD3-induced production after in vivo RBV” value ([4]; initial experiment, 10 mg/kg intraperitoneal (IP) RBV) was “no effect in vivo of RBV and possibly even a slight decrease”.
For “O*rU*rU*rG*rU*rG*rU (8-oxo-dG at 5' end, phosphorothioate linkages, as printed in the source, key not given here) [SEQ ID NO:5, ORN with a single 8-Oxo-rG/Dg at the 5′ end]”, the “IFN-alpha cytokine induction, 8-modified nucleotide at the ORN 5′ end” value (“IFN-alpha cytokine induction … at the ORN 5′ end” for short) [5] was “increased cytokine induction”.
In the case of “TCCATGACGTTCCTGATGC (chemistry not given here) [SEQ ID NO. 14, CpG ODN]”, the survival [6] is reported as “prolonged survival”, the IL-10 induction [2, 8] is reported as “induced” and the IL-12 induction [2, 8] is reported as “induced”. For the same compound, the TNF induction [2, 8] was “induced” and the “T cell IFN-γ production ex-vivo after in vivo treatment with a single agent” value [4] was “increased”.
In the case of “iIM*rU*rU*rG*rU*rG*rU (5' isatoribine via 5'-5' linkage, phosphorothioate, as printed in the source, key not given here) [SEQ ID NO:6, ORN with Immunosine (Isatoribine) (with a 5′-5′ linkage) at the 5′ end]”, the “IFN-alpha cytokine induction … at the ORN 5′ end” value [5] is reported as “increased cytokine induction”.
With “rO*rU*rU*rG*rU*rG*rU (8-oxo-rG, phosphorothioate linkages, as printed in the source, key not given here) [SEQ ID NO:3, ORN with a single 8-Oxo-rG at the 5′ position]” the “IFN-alpha cytokine induction, effect of the position of 8-Oxo-rG” value [5] was “increased cytokine induction”.
For rO*rU*rU*rO*rU*rO*rU [SEQ ID NO:1], the “IFN-alpha cytokine induction, effect of the position of 8-Oxo-rG” value [5] was “increased cytokine induction” and the “IFN-alpha cytokine induction … at the ORN 5′ end” value [5] was “increased cytokine induction”.
